The supplement of paper PMC10307832

Experiments:
Test in all cases: relative viability (nuclei count vs DMSO), 5 days (fraction); higher = more cells survive
AZD5582 + Foretinib = compound: C[C@@H](C(=O)N[C@@H](C1CCCCC1)C(=O)N2CCC[C@H]2C(=O)N[C@@H]3[C@@H](CC4=CC=CC=C34)OCC#CC#CCO[C@@H]5CC6=CC=CC=C6[C@@H]5NC(=O)[C@@H]7CCCN7C(=O)[C@H](C8CCCCC8)NC(=O)[C@H](C)NC)NC [AZD5582] + COc1cc2c(Oc3ccc(NC(=O)C4(C(=O)Nc5ccc(F)cc5)CC4)cc3F)ccnc2cc1OCCCN1CCOCC1 [Foretinib] (partner 0.25 µM)
Outline: (§1)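 Five library-drug doses in √10 steps were combined with a fixed anchor-drug dose, or a single drug was given alone, by pin tool to lung cancer cell lines in 1536-well plates the day after seeding. Nuclei were stained and counted after 5 days. Relative viability is the nuclei count in treated wells over that in vehicle wells, taken as the median of duplicate plates.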

AZD5582 + Lapatinib = compound: C[C@@H](C(=O)N[C@@H](C1CCCCC1)C(=O)N2CCC[C@H]2C(=O)N[C@@H]3[C@@H](CC4=CC=CC=C34)OCC#CC#CCO[C@@H]5CC6=CC=CC=C6[C@@H]5NC(=O)[C@@H]7CCCN7C(=O)[C@H](C8CCCCC8)NC(=O)[C@H](C)NC)NC [AZD5582] + CS(=O)(=O)CCNCc1ccc(-c2ccc3ncnc(Nc4ccc(OCc5cccc(F)c5)c(Cl)c4)c3c2)o1 [Lapatinib] (partner 2 µM)
Outline: as §1

Temozolomide + Olaparib = compound: Cn1nnc2c(C(N)=O)ncn2c1=O [Temozolomide] + O=C(c1cc(Cc2n[nH]c(=O)c3ccccc23)ccc1F)N1CCN(C(=O)C2CC2)CC1 [Olaparib] (partner 8 µM)
Outline: as §1

Temozolomide + OSI-027 = compound: Cn1nnc2c(C(N)=O)ncn2c1=O [Temozolomide] + COc1cccc2cc(-c3nc([C@H]4CC[C@H](C(=O)O)CC4)n4ncnc(N)c34)[nH]c12 [OSI-027] (partner 0.5 µM)
Outline: as §1

| Cell Line | relative viability (AZD5582 + Foretinib; first compound 0.001581 µM) | relative viability (AZD5582 + Foretinib; first compound 0.005 µM) | relative viability (AZD5582 + Foretinib; first compound 0.01581 µM) | relative viability (AZD5582 + Foretinib; first compound 0.05 µM) | relative viability (AZD5582 + Lapatinib; first compound 0.001581 µM) | relative viability (AZD5582 + Lapatinib; first compound 0.005 µM) | relative viability (AZD5582 + Lapatinib; first compound 0.05 µM) | relative viability (Temozolomide + Olaparib; first compound 0.2 µM) | relative viability (Temozolomide + Olaparib; first compound 0.6325 µM) | relative viability (Temozolomide + Olaparib; first compound 2 µM) | relative viability (Temozolomide + Olaparib; first compound 6.325 µM) | relative viability (Temozolomide + Olaparib; first compound 20 µM) | relative viability (Temozolomide + OSI-027; first compound 0.2 µM) | relative viability (Temozolomide + OSI-027; first compound 0.6325 µM) | relative viability (Temozolomide + OSI-027; first compound 2 µM) | relative viability (Temozolomide + OSI-027; first compound 6.325 µM) | relative viability (Temozolomide + OSI-027; first compound 20 µM) | relative viability (AZD5582 + Lapatinib; first compound 0.01581 µM) |
| --- | --- | --- | --- | --- | --- | --- | --- | --- | --- | --- | --- | --- | --- | --- | --- | --- | --- | --- |
| NCI-H1395 | 0.979 | 1.14 | 1.04 | 1.14 | 1.08 | 1.07 | 1.13 | 0.439 | 0.441 | 0.51 | 0.354 | 0.385 | 0.629 | 0.604 | 0.686 | 0.513 | 0.659 |  |
| NCI-H1437 | 1.17 | 1.22 | 1.24 | 1.16 | 0.616 | 0.759 | 0.72 | 0.614 | 0.606 | 0.632 | 0.583 | 0.523 | 0.863 | 0.877 | 0.952 | 0.922 | 0.906 | 0.687 |
| NCI-H1650 | 0.971 | 1.33 | 1.27 | 0.889 | 0.587 | 0.832 | 0.37 | 0.854 | 0.795 | 0.776 | 0.672 | 0.703 | 0.638 | 0.788 | 0.651 | 0.596 | 0.409 | 0.581 |
| NCI-H1651 | 0.714 | 0.883 |  | 1.16 | 0.862 | 1.03 | 0.988 | 0.187 | 0.177 | 0.173 | 0.145 | 0.0979 | 0.724 | 0.727 | 0.657 | 0.636 | 0.636 | 0.724 |
| NCI-H1666 | 0.786 | 1.02 | 0.953 | 0.907 | 0.488 | 0.712 | 0.744 | 0.731 | 0.729 | 0.771 | 0.639 | 0.604 | 0.81 | 0.822 | 0.789 | 0.65 | 0.672 | 0.673 |
| NCI-H1734 | 0.814 | 0.892 | 0.968 | 1.11 | 1.03 | 1.2 | 1.23 | 0.708 | 0.586 | 0.577 | 0.614 | 0.373 | 0.685 | 0.562 | 0.667 | 0.578 | 0.649 | 0.99 |
| NCI-H1755 | 0.939 | 0.98 | 0.846 | 1 | 1.01 | 1.08 | 1.03 | 0.905 | 0.85 | 0.926 | 0.829 | 0.568 | 0.76 | 0.758 | 0.743 | 0.673 | 0.637 | 0.95 |
| NCI-H1793 | 0.737 | 0.827 | 0.572 | 0.908 | 0.777 | 0.898 | 0.838 |  | 0.943 | 1.07 | 0.685 | 0.506 |  | 0.279 | 0.27 | 0.245 | 0.232 | 0.592 |
| NCI-H1915 | 1.06 | 1.09 | 1.13 | 1.09 | 0.923 | 1.02 | 0.89 | 0.272 | 0.234 | 0.238 | 0.212 | 0.151 | 0.693 | 0.614 | 0.602 | 0.388 | 0.326 | 0.873 |
| NCI-H1944 | 0.8 | 0.976 | 0.93 | 1.05 | 0.767 | 0.961 | 0.882 | 0.428 | 0.38 | 0.377 | 0.315 | 0.27 | 0.428 | 0.378 | 0.474 | 0.377 | 0.382 | 0.82 |
| NCI-H1975 | 0.926 | 1.17 | 1.06 | 1.2 | 1.01 | 1.21 | 1.2 | 0.779 | 0.77 | 0.798 | 0.744 | 0.699 | 0.888 | 0.683 | 0.852 | 0.731 | 0.804 | 0.836 |
| NCI-H1993 | 0.792 | 0.786 | 0.854 | 0.715 | 0.792 | 0.82 | 0.843 | 0.913 | 1.34 | 1.2 | 0.94 | 0.836 | 0.522 | 0.556 | 0.536 | 0.535 | 0.621 | 0.78 |
| NCI-H2009 | 1.22 | 1.28 | 1.19 | 1.29 | 0.632 | 0.861 | 0.62 | 0.723 | 0.671 | 0.717 | 0.641 | 0.499 | 0.82 | 0.597 | 0.682 | 0.699 | 0.698 | 0.452 |
| NCI-H2023 | 0.805 | 0.851 | 0.802 | 0.804 | 0.64 | 1.15 | 0.462 | 0.539 | 0.444 | 0.463 | 0.373 | 0.26 | 0.375 | 0.39 | 0.475 | 0.329 | 0.413 | 0.553 |
| NCI-H2085 | 1.06 | 0.776 | 0.924 | 0.698 | 0.667 | 0.818 | 0.731 | 0.773 | 0.765 | 0.797 | 0.677 | 0.491 | 0.537 | 0.886 | 1.05 | 0.734 | 0.577 | 0.654 |
| NCI-H2087 | 0.957 | 1.24 | 1.05 | 1.16 | 0.929 | 1.06 | 1.08 | 0.698 | 0.723 | 0.698 | 0.502 | 0.378 | 0.628 | 0.565 | 0.634 | 0.464 | 0.612 | 0.808 |
| NCI-H2126 | 1.15 | 1.19 | 1.05 | 0.969 | 0.845 | 0.854 | 0.75 | 0.875 | 0.903 | 0.852 | 0.921 | 0.831 | 0.686 | 0.781 | 0.85 | 1.12 | 0.717 | 0.719 |
